Laboratory results published in PubChem BioAssay (NCI).
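Values below derive from 48-hour exposures of cells grown in 96-well plates, with endpoints linearly interpolated between the two concentrations bracketing the appropriate inhibition level. GI50 is the concentration that inhibits growth by half. TGI: total growth inhibition.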

Legend:
Experiment in all cases: DTP human tumour cell line panel, 48 h
A498 renal = tested on: A498 renal
DU-145 prostate = tested on: DU-145 prostate
HCT-116 colon = tested on: HCT-116 colon
HCT-15 colon = tested on: HCT-15 colon
K-562 leukemia = tested on: K-562 leukemia
NCI/ADR-RES ovarian = tested on: NCI/ADR-RES ovarian
RPMI-8226 leukemia = tested on: RPMI-8226 leukemia
SF-295 CNS = tested on: SF-295 CNS
SNB-19 CNS = tested on: SNB-19 CNS
UO-31 renal = tested on: UO-31 renal

Structure (SMILES)	TGI (A498 renal)	TGI (DU-145 prostate)	TGI (HCT-116 colon)	TGI (HCT-15 colon)	TGI (K-562 leukemia)	TGI (NCI/ADR-RES ovarian)	TGI (RPMI-8226 leukemia)	TGI (SF-295 CNS)	TGI (SNB-19 CNS)	TGI (UO-31 renal)	GI50 (A498 renal)	GI50 (DU-145 prostate)	GI50 (HCT-116 colon)	GI50 (HCT-15 colon)	GI50 (K-562 leukemia)	GI50 (NCI/ADR-RES ovarian)	GI50 (RPMI-8226 leukemia)	GI50 (SF-295 CNS)	GI50 (SNB-19 CNS)	GI50 (UO-31 renal)
COc1ccc2c3c1OC1C(OC)(OC)CC4(C=C2)CN(C)CCC314 (configuration not stated)	> 100 µM	> 100 µM	> 100 µM	> 100 µM	> 100 µM	> 100 µM	> 100 µM	> 100 µM	> 100 µM	> 100 µM	–	–	–	–	–	–	–	–	–	–
N#Cc1c(-c2ccc([N+](=O)[O-])cc2)cc(-c2ccc(Nc3ccnc4cc(Cl)ccc34)cc2)nc1N	51.7 µM	33.2 µM	14.7 µM	18.6 µM	> 33.1 µM	26.8 µM	15 µM	37.6 µM	47.4 µM	42.8 µM	–	–	–	–	–	–	–	–	–	–
O=P1(Cc2ccccc2)c2ccccc2-c2ccccc21	38.1 µM	> 100 µM	50.9 µM	> 100 µM	> 100 µM	> 100 µM	4.61 µM	40.5 µM	> 37.8 µM	69.2 µM	–	–	–	–	–	–	–	–	–	–
CC(C)=C[C@@H]1O[C@H](O)[C@@H]([C@H]2CC[C@@]3(C)[C@@H]4CC[C@H]5C(C)(C)C(=O)CC[C@@]56C[C@@]46CC[C@]23C)[C@@H]1O	32.8 µM	29.6 µM	28.5 µM	36.1 µM	38.4 µM	35.6 µM	12.7 µM	31.9 µM	39.1 µM	28.6 µM	–	–	–	–	–	–	–	–	–	–
O=C(NC1(C(=O)O)CCCC1)c1ccccc1	> 100 µM	> 100 µM	> 100 µM	> 100 µM	> 100 µM	> 100 µM	> 100 µM	> 100 µM	> 100 µM	> 100 µM	–	–	–	–	–	–	–	–	–	–
COc1cccc2cc(C(=O)NC34CC5CC(CC(C5)C3)C4)c(=N)oc12	> 100 µM	> 100 µM	> 100 µM	> 100 µM	> 100 µM	> 100 µM	> 77.9 µM	> 100 µM	> 100 µM	7.63 µM	–	–	–	–	–	–	–	–	–	–
COc1ccccc1C1C(C#N)=C(N)Oc2cc(O)ccc21 (configuration not stated)	> 100 µM	94.1 µM	26.4 µM	> 100 µM	> 100 µM	68.2 µM	19.8 µM	80.6 µM	99.8 µM	> 100 µM	36.8 µM	26 µM	12.5 µM	23.9 µM	4.68 µM	8.56 µM	5.99 µM	16 µM	21.3 µM	29.3 µM
C[n+]1ccccc1/C1=c2\cc/c([nH]2)=C(\c2cccc[n+]2C)C2=N/C(=C(/c3cccc[n+]3C)C3C=CC(N3)/C(c3cccc[n+]3C)=C3/C=CC1=N3)C=C2	> 100 µM	> 100 µM	> 100 µM	> 100 µM	> 100 µM	> 100 µM	> 100 µM	> 100 µM	> 100 µM	> 100 µM	–	–	–	–	–	–	–	–	–	–
CC(=O)NC1C(OCc2ccccc2)OC(CO)C(O)C1OCC(=O)N[C@@H](C)C(=O)N[C@H](CCC(=O)NCCNc1ccc([N+](=O)[O-])c2[nH]c3ccccc3c(=O)c12)C(N)=O (some centres not stated)	58 µM	> 100 µM	> 100 µM	44.9 µM	> 100 µM	59.7 µM	> 100 µM	> 100 µM	93.2 µM	37.4 µM	–	–	–	–	–	–	–	–	–	–
Cc1cc(N(CCC#N)CCC#N)ccc1/C(N=Nc1ccc([N+](=O)[O-])cc1)=N\NC(=O)c1ccccc1	74 µM	> 100 µM	> 100 µM	> 100 µM	> 100 µM	> 100 µM	> 100 µM	> 100 µM	> 100 µM	> 100 µM	–	–	–	–	–	–	–	–	–	–
CCOC(=O)c1nc2cc(C(F)(F)F)ccc2nc1Oc1ccc(F)cc1	> 100 µM	> 100 µM	64.2 µM	> 100 µM	> 100 µM	> 100 µM	> 100 µM	> 100 µM	> 100 µM	> 100 µM	–	–	–	–	–	–	–	–	–	–
CN(C)c1ccc(/C=C(\NC(=O)c2ccccc2)C(=O)NC(Cc2c[nH]c3ccccc23)C(=O)O)cc1 (configuration not stated)	> 100 µM	> 100 µM	> 100 µM	> 100 µM	> 100 µM	> 100 µM	> 100 µM	> 100 µM	> 100 µM	> 100 µM	–	–	–	–	–	–	–	–	–	–
[N-]=[N+]=Nc1ccc2c(c1)Sc1ccccc1N2CCCCN1CCN(C(=O)CCNC(=O)Cc2ccc(C(=O)c3ccccc3)cc2)CC1	> 35.9 µM	> 100 µM	18.9 µM	8.52 µM	–	> 39.1 µM	4.87 µM	10.1 µM	> 56.4 µM	> 100 µM	–	–	–	–	–	–	–	–	–	–
COc1ccc(/C=C/C(=O)Oc2ccccc2OC)cc1	> 100 µM	> 100 µM	9.55 µM	37 µM	> 100 µM	> 68.3 µM	5.22 µM	10.7 µM	> 100 µM	> 100 µM	–	–	–	–	–	–	–	–	–	–
NS(=O)(=O)c1nnc(NS(=O)(=O)c2ccc([N+](=O)[O-])cc2)s1	> 100 µM	> 100 µM	> 100 µM	> 100 µM	> 100 µM	> 100 µM	> 100 µM	> 100 µM	–	> 100 µM	–	–	–	–	–	–	–	–	–	–
CC(CC[C@@]1(O)OC2C[C@H]3[C@@H]4CC[C@H]5CC(OC6OC(CO)C(OC7OC(CO)C(O)C(OC8OCC(O)C(O)C8O)C7OC7OC(CO)C(O)C(O)C7O)C(O)C6O)[C@H](O)CC5(C)[C@H]4CCC3(C)C2[C@@H]1C)COC1OC(CO)C(O)C(O)C1O (some centres not stated)	> 50 µM	10.3 µM	47.3 µM	> 50 µM	> 50 µM	31.1 µM	> 50 µM	45.2 µM	> 50 µM	21.3 µM	–	–	–	–	–	–	–	–	–	–
CCNC(=S)NNC(=O)CSc1nc2ccc(I)cc2c(=O)n1Cc1ccccc1	> 78.2 µM	> 100 µM	> 77.1 µM	> 100 µM	> 100 µM	> 100 µM	> 100 µM	> 100 µM	> 100 µM	0.136 µM	–	–	–	–	–	–	–	–	–	–
CCOC(=O)C1(C(=O)OCC)C=C(c2ccccc2)N(C2OC(COC(C)=O)C(OC(C)=O)C(OC(C)=O)C2OC(C)=O)C1=S (configuration not stated)	> 100 µM	> 100 µM	> 100 µM	> 100 µM	–	> 100 µM	44.3 µM	> 100 µM	> 100 µM	> 100 µM	–	–	–	–	–	–	–	–	–	–
COc1cc(S(=O)(=O)Nc2ccc(-c3csc(N4C(=O)C(Cl)C4c4cccs4)n3)cc2)ccc1Cl (configuration not stated)	> 100 µM	> 100 µM	> 100 µM	> 100 µM	> 100 µM	> 100 µM	> 100 µM	> 100 µM	> 100 µM	> 100 µM	–	–	–	–	–	–	–	–	–	–
